{"source": "patent US20250215029A1", "about": "(Recludix Pharma, Inc., priority 2022, published 2025)"}
{"target": "T1, pY641-STAT6 in PBMC (Homo sapiens, UniProt P42226)", "T1 construct": "Cryopreserved Peripheral Blood Mononuclear Cells (PBMC) are from AllCells; host or cells: cryopreserved PBMC", "T1 sequence (P42226 1-847)": "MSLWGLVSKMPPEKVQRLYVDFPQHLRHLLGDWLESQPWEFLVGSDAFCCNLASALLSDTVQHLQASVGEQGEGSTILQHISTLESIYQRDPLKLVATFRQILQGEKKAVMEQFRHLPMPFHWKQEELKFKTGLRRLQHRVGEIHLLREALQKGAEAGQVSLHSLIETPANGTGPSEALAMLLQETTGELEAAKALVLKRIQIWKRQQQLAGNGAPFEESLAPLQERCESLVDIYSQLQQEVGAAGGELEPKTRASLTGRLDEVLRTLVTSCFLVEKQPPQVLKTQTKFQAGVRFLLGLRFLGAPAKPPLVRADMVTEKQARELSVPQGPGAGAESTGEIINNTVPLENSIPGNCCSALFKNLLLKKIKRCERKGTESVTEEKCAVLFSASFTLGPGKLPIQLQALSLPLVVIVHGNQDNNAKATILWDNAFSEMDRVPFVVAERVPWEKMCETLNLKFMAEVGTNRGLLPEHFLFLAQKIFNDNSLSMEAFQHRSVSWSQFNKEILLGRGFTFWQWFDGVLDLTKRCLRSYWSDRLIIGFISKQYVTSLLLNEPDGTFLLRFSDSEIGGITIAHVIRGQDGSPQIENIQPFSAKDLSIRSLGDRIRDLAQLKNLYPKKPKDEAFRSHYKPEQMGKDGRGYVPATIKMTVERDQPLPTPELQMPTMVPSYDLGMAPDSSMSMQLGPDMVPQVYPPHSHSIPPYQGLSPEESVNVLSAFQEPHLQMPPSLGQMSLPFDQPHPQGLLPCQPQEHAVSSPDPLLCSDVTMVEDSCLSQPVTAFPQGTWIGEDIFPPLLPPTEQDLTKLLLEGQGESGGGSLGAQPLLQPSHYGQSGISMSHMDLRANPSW", "test": "MSD-pSTAT-PBMC Assay (pSTAT6, IL-4 stimulated)", "type": "cell-based", "settings": "STAT6, PBMC, compound 3 hrs, then 1 ng/mL IL-4 for 10 min; Table 115", "text": "(§1) Cryopreserved Peripheral Blood Mononuclear Cells (PBMC) are from AllCells. Recombinant Human IL-4 and IL-6 are from Peprotech. Mouse monoclonal anti-STAT3 antibody, rabbit monoclonal anti-pY705-STAT3 antibody, rabbit monoclonal Anti-pY641-STAT6 antibody, and lysis buffer are from Cell Signaling Technology (CST). Mouse monoclonal anti-STAT6 antibody is from BioLegend. Assay plates, blocker, and anti-rabbit secondary antibody are from Meso Scale Discovery (MSD).\n(§2) Cyropreserved PBMCs were thawed out and allowed to recover overnight in IMDM+10% heat-inactivated FBS prior to plating 50,000 (STAT3) or 25,000 (STAT6) cells per well in 96-well U-bottom tissue culture plates. Cells were treated with compound for 3 hrs, then stimulated with 10 ng/mL IL-6 (STAT3) or 1 ng/mL IL-4 (STAT6) for 10 min. Cells were then spun down and washed with ice-cold PBS prior to lysing the cell pellet with 1× lysis buffer (CST) with 1× HALT protease and phosphatase inhibitor cocktail (Thermo). Lysates were transferred to and incubated overnight at 4° C. with shaking in QuickPlex 96-well high bind assay plates (MSD) pre-coated overnight with 30 μL per well of 0.6 μg/mL mouse monoclonal anti-STAT3 antibody (STAT3) or 2 μg/mL mouse monoclonal anti-STAT6 antibody (STAT6) in 1× PBS, and pre-blocked for 1 hour with 3% Blocker-A (MSD). Captured protein in the assay plates were then washed and probed with 25 μL per well of […] rabbit monoclonal anti-pY705-STAT3 antibody (STAT3) or 0.18 μg/ml rabbit monoclonal Anti-pY641-STAT6 antibody (STAT6) in 1% Blocker-A for 1 hour at room temperature with shaking, then washed and probed with 25 ul per well of 1 ug/ml Sulfo-TAG Labeled Goat Anti-Rabbit Antibody (MSD) in 1% Blocker-A for 1 hour at room temperature with shaking. Assay plates were then washed and 150 μL of 1× Read Buffer-T (MSD) was added to each well prior to reading on an SQ120 MSD Plate Reader. Assay signal from each sample was subtracted by the signal from unstimulated control wells and normalized to DMSO control wells. IC50 values were calculated using Graph Pad Prism Dose-Response Nonlinear Regression with variable slope. For both pSTAT3 and pSTAT6 A=≤100 nM; B 100-1000 nM; C=>1000-3000 nM; D=>3 μM; and NT=Not Tested.", "units": {"IC50": "nM"}}
{"smiles": "CCCOC(=O)[C@H](C)NP(=O)(Oc1ccccc1)C(F)c1ccc2ccc(C(=O)N[C@H]3CCCC[C@H]4CC[C@@H](C(=O)N5C[C@@H](C#N)[C@H](c6ccccc6)C5)N4C3=O)cc2c1", "note": "(single isomer, unassigned) [Compound 316]", "IC50": "< 100"}
{"smiles": "CCCOC(=O)[C@H](C)NP(=O)(Oc1ccccc1)C(F)c1ccc2sc(C(=O)N[C@H]3CCCC[C@H]4CC[C@@H](C(=O)N5C[C@@H](C#N)[C@H](c6ccn(C)c(=O)c6)C5)N4C3=O)cc2c1", "note": "(single isomer, unassigned) [Compound 318]", "IC50": "> 3000"}
{"smiles": "CCCOC(=O)[C@H](C)NP(=O)(Oc1ccccc1)C(F)c1ccc2sc(C(=O)N[C@H]3CCCC[C@H]4CC[C@@H](C(=O)N5C[C@@H](C#N)[C@H](c6ccn(C)c(=O)c6)C5)N4C3=O)cc2c1", "note": "(single isomer, unassigned) [Compound 319]", "IC50": "1000 to 3000"}
{"smiles": "CCCOC(=O)[C@H](C)NP(=O)(Oc1ccccc1)[C@H](F)c1ccc2sc(C(=O)N[C@H]3CCCC[C@H]4CC[C@@H](C(=O)N5C[C@@H](C#N)[C@H](c6ccccc6)C5)N4C3=O)cc2c1", "note": "(single isomer, unassigned) [Compound 321]", "IC50": "< 100"}
{"smiles": "CCCOC(=O)[C@H](C)NP(=O)(Oc1ccccc1)[C@@H](F)c1ccc2sc(C(=O)N[C@H]3CCCC[C@H]4CC[C@@H](C(=O)N5C[C@H](c6cccc(OC)c6)[C@@H](C#N)C56CC6)N4C3=O)cc2c1", "note": "(single isomer, unassigned) [Compound 335]", "IC50": "< 100"}
{"smiles": "CCCOC(=O)[C@H](C)NP(=O)(Oc1ccccc1)[C@@H](F)c1ccc2sc(C(=O)N[C@H]3CCCC[C@H]4CC[C@@H](C(=O)N5C[C@H](c6cccc(C#N)c6)[C@@H](C#N)C56CC6)N4C3=O)cc2c1", "note": "(single isomer, unassigned) [Compound 339]", "IC50": "< 100"}
{"smiles": "CCCOC(=O)[C@H](C)NP(=O)(Oc1ccccc1)[C@@H](F)c1ccc2sc(C(=O)N[C@H]3CCC[C@H]4CC[C@@H](C(=O)N5C[C@@H](c6cccc(C)c6)[C@H](C#N)C56CC6)N4C3=O)cc2c1", "note": "(single isomer, unassigned) [Compound 341]", "IC50": "< 100"}
{"smiles": "CCCOC(=O)[C@H](C)NP(=O)(Oc1ccccc1)[C@H](F)c1ccc2sc(C(=O)N[C@H]3CCC[C@H]4CC[C@@H](C(=O)N5C[C@@H](c6cccnc6)[C@H](C#N)C56CC6)N4C3=O)cc2c1", "note": "(single isomer, unassigned) [Compound 355]", "IC50": "< 100"}
{"smiles": "CCCOC(=O)[C@H](C)NP(=O)(Oc1ccccc1)[C@@H](F)c1ccc2sc(C(=O)N[C@H]3CCC[C@H]4CC[C@@H](C(=O)N5C[C@H](c6cccnc6)[C@@H](C#N)C56CC6)N4C3=O)cc2c1", "note": "(single isomer, unassigned) [Compound 362]", "IC50": "< 100"}
{"smiles": "CCCOC(=O)[C@H](C)NP(=O)(Oc1ccccc1)[C@@H](F)c1ccc2sc(C(=O)N[C@H]3CCC[C@H]4CC[C@@H](C(=O)N5C[C@H](c6cncc(Cl)c6)[C@@H](C#N)C56CC6)N4C3=O)cc2c1", "note": "(single isomer, unassigned) [Compound 367]", "IC50": "100 to 1000"}
{"smiles": "CCCOC(=O)[C@H](C)NP(=O)(Oc1ccccc1)[C@@H](F)c1ccc2sc(C(=O)N[C@H]3CCC[C@H]4CC[C@@H](C(=O)N5C[C@H](c6cncc(Cl)c6)[C@@H](C#N)C56CC6)N4C3=O)cc2c1", "note": "(single isomer, unassigned) [Compound 368]", "IC50": "> 3000"}
{"smiles": "CCCOC(=O)[C@H](C)NP(=O)(Oc1ccccc1)[C@@H](F)c1ccc2sc(C(=O)N[C@H]3CCC[C@H]4CC[C@@H](C(=O)N5C[C@H](c6cncc(OC)c6)[C@@H](C#N)C56CC6)N4C3=O)cc2c1", "note": "(single isomer, unassigned) [Compound 369]", "IC50": "1000 to 3000"}
{"smiles": "CCCOC(=O)[C@H](C)NP(=O)(Oc1ccccc1)[C@@H](F)c1ccc2sc(C(=O)N[C@H]3CCCC[C@H]4CC[C@@H](C(=O)N5C[C@H](c6cncc(Cl)c6)[C@@H](C#N)C56CC6)N4C3=O)cc2c1", "note": "(single isomer, unassigned) [Compound 370]", "IC50": "< 100"}
{"smiles": "CCCOC(=O)[C@H](C)NP(=O)(Oc1ccccc1)[C@@H](F)c1ccc2sc(C(=O)N[C@H]3CCCC[C@H]4CC[C@@H](C(=O)N5C[C@H](c6cncc(Cl)c6)[C@@H](C#N)C56CC6)N4C3=O)cc2c1", "note": "(single isomer, unassigned) [Compound 371]", "IC50": "1000 to 3000"}
{"smiles": "CCCOC(=O)[C@H](C)NP(=O)(Oc1ccccc1)[C@@H](F)c1ccc2sc(C(=O)N[C@H]3CCCC[C@H]4CC[C@@H](C(=O)N5C[C@H](c6cncc(OC)c6)[C@@H](C#N)C56CC6)N4C3=O)cc2c1", "note": "(single isomer, unassigned) [Compound 372]", "IC50": "> 3000"}
{"smiles": "CCCOC(=O)[C@H](C)NP(=O)(Oc1ccccc1)C(C)c1ccc2ccc(C(=O)N[C@H]3CCCC[C@H]4CC[C@@H](C(=O)N5C[C@@H](c6ccccc6)CC56CC6)N4C3=O)cc2c1", "note": "(single isomer, unassigned) [Compound 425]", "IC50": "> 3000"}
{"smiles": "CCCOC(=O)[C@H](C)N[P@@](=O)(Oc1ccccc1)[C@@H](F)c1ccc2sc(C(=O)N[C@H]3CCCC[C@H]4CC[C@@H](C(=O)N5C[C@@H](c6cccnc6)CC56CC6)N4C3=O)cc2c1", "note": "(single isomer, unassigned) [Compound 461]", "IC50": "< 100"}
{"smiles": "CCCOC(=O)[C@H](C)NP(=O)(Oc1ccccc1)[C@@H](F)c1ccc2sc(C(=O)N[C@H]3CCC[C@H]4CC[C@@H](C(=O)N5C[C@H](c6ccc(C)cc6)[C@@H](C#N)C56CC6)N4C3=O)cc2c1", "note": "(single isomer, unassigned) [Compound 478]", "IC50": "< 100"}
{"smiles": "CCCOC(=O)[C@H](C)NP(=O)(Oc1ccccc1)[C@@H](F)c1ccc2sc(C(=O)N[C@H]3CCCC[C@H]4CC[C@@H](C(=O)N5C[C@@H](c6cccc(C(F)F)c6)[C@H](C#N)C56CC6)N4C3=O)cc2c1", "note": "(single isomer, unassigned) [Compound 482]", "IC50": "< 100"}
{"target": "T1, pY641-STAT6 in PBMC", "test": "MSD-pSTAT-PBMC Assay (pSTAT6, IL-4 stimulated)", "type": "cell-based", "settings": "read-out: STAT6; PBMC, compound 3 hrs, then 1 ng/mL IL-4 for 10 min; Table 115", "text": "as §1, §2", "units": {"IC50": "nM"}}
{"smiles": "CCCOC(=O)[C@H](C)NP(=O)(Oc1ccccc1)C(F)c1ccc2sc(C(=O)N[C@H]3CCCC[C@H]4CC[C@@H](C(=O)N5C[C@@H](C#N)[C@H](c6ccccc6)C5)N4C3=O)cc2c1", "note": "(single isomer, unassigned) [Compound 317]", "IC50": "< 100"}
{"smiles": "CCCOC(=O)[C@H](C)NP(=O)(Oc1ccccc1)[C@@H](F)c1ccc2sc(C(=O)N[C@H]3CCCC[C@H]4CC[C@@H](C(=O)N5C[C@H](c6cccc(OC)c6)[C@@H](C#N)C56CC6)N4C3=O)cc2c1", "note": "(single isomer, unassigned) [Compound 336]", "IC50": "< 100"}
{"smiles": "CCCOC(=O)[C@H](C)NP(=O)(Oc1ccccc1)[C@@H](F)c1ccc2sc(C(=O)N[C@H]3CCCC[C@H]4CC[C@@H](C(=O)N5C[C@H](c6cccc(C#N)c6)[C@@H](C#N)C56CC6)N4C3=O)cc2c1", "note": "(single isomer, unassigned) [Compound 340]", "IC50": "< 100"}
{"smiles": "CCCOC(=O)[C@H](C)NP(=O)(Oc1ccccc1)[C@@H](F)c1ccc2sc(C(=O)N[C@H]3CCC[C@H]4CC[C@@H](C(=O)N5C[C@@H](c6cccc(C)c6)[C@H](C#N)C56CC6)N4C3=O)cc2c1", "note": "(single isomer, unassigned) [Compound 342]", "IC50": "< 100"}
{"smiles": "CCCOC(=O)[C@H](C)NP(=O)(Oc1ccccc1)[C@@H](F)c1ccc2sc(C(=O)N[C@H]3CCC[C@H]4CC[C@@H](C(=O)N5C[C@H](c6cccnc6)[C@@H](C#N)C56CC6)N4C3=O)cc2c1", "note": "(single isomer, unassigned) [Compound 363]", "IC50": "< 100"}
